Test results taken from patent publication US9301951B2 (Ardelyx, Inc., priority 2010, dated 2016).

target: T1, rat NaP2b (SLC34A2) (Rattus norvegicus, UniProt Q9JJ09); experiment: Inhibition of NaP2b-mediated Pi (33P) uptake in transfected HEK293 cells, rat NaP2b; type: cell-based; conditions: HEK293 cells transfected with rat NaP2b, 100 uM phosphate, 0.1 nM to 30 uM, read-out: pIC50 range for rat Nap2b (converted)
T1 construct: host or cells: HEK293
T1 sequence (Q9JJ09 1-695): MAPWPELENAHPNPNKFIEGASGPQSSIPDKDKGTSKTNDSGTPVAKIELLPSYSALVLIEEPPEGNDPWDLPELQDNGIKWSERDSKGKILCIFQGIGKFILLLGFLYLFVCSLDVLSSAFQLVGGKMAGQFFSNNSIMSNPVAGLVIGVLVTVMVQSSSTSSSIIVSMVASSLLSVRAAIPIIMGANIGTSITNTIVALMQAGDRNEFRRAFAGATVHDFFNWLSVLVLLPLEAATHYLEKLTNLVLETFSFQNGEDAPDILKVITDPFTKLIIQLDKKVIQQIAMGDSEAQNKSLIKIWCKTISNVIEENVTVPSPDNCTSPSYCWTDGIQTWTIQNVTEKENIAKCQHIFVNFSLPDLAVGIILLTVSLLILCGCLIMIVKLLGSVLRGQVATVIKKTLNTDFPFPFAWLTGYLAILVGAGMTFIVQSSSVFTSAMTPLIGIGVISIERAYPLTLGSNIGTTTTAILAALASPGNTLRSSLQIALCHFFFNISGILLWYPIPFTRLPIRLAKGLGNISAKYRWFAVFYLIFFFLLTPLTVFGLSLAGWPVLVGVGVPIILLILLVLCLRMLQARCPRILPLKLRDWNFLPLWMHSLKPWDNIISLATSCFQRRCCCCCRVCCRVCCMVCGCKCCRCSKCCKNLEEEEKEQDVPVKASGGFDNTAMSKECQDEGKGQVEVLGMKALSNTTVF
Procedure: HEK293 cells were obtained from the American Type Culture collection and propagated per their instructions. Expression clones for rat and human NaP2b (SLC34A2) were obtained from Open Biosystems (Catalog numbers MRN1768-9510282, and MHS1010-99823026, respectively). The sequence of the human protein was mutated to insert a threonine after residue 37, and to introduce a N39D mutation.
Cells were seeded into 96-well plates at 25,000 cells/well and cultured overnight. Lipofectamine 2000 (Invitrogen) was used to introduce the NaP2b cDNA, and the cells were allowed to approach confluence during a second overnight incubation. […] Cells were then overlayed with either choline uptake buffer or sodium uptake buffer (14 mM Tris, 137 mM sodium chloride, 5.4 mM KCl, 2.8 mM CaCl2, 1.2 mM MgSO4, 100 uM KH2PO4, PiT-silencing agent, 1 mg/mL Bovine Serum Albumin, pH 7.4) containing 6-9 uCi/mL ^33P orthophosphoric acid (Perkin Elmer) and test compound. Each compound was tested at twelve concentrations ranging from 0.1 nM to 30 uM. Assays were run in duplicate.
Cells were lysed by addition of 20 μL 0.1% Tween 80 followed by 100 μL scintillation fluid, and counted using a TopCount (Perkin Elmer).
pIC50 (the negative log of the […]) values of the test compounds were calculated using GraphPad Prism.

Row | Compound | IC50
1 | CC(C)COc1ccc(NC(=O)c2cccc(CSCCC(=O)O)c2)c(-c2cc(C(=O)NCc3cccc(C(F)(F)F)c3)ccn2)c1 [Example 33] | 10 to 31.6 µM
2 | O=C(O)CCSCc1cccc(C(=O)Nc2ccccc2-c2cc(C(=O)NCc3cccc(C(F)(F)F)c3)ccn2)c1 [Example 22, 3-((3-((2-(4-((3-(Trifluoromethyl)benzyl)carbamoyl)pyridin-2-yl)phenyl)carbamoyl)benzyl)thio)propanoic acid] | 10 to 31.6 µM
3 | O=C(O)CCSCc1cccc(C(=O)Nc2ccc(N3CCCCC3)cc2-c2cc(C(=O)N3CCCC3c3ccccc3)ccn2)c1 (stereo not shown) [Example 1.9] | 10 to 31.6 µM
4 | O=C(O)CCSCc1cccc(C(=O)Nc2ccc(N3CCCCC3)cc2-c2cc(C(O)CCc3ccccc3)ccn2)c1 (stereo not shown) [Example 6.1, 3-((3-((2-(4-(1-hydroxy-3-phenylpropyl)pyridin-2-yl)-4-(piperidin-1-yl)phenyl)carbamoyl)benzyl)thio)propanoic acid] | 10 to 31.6 µM
5 | O=C(O)CCSCc1cccc(C(=O)Nc2ccc(N3CCCC3)cc2-c2cc(C(=O)NCc3cccc(C(F)(F)F)c3)ccn2)c1 [Example 20, 3-((3-((4-(Pyrrolidin-1-yl)-2-(4-((3-(trifluoromethyl)benzyl)carbamoyl)pyridin-2-yl)phenyl)carbamoyl)benzyl)thio)propanoic acid] | 1 to 7.94 µM
6 | O=C(O)CCSCc1cccc(C(=O)Nc2ccc(N3CCSCC3)cc2-c2cc(C(=O)NCc3cccc(C(F)(F)F)c3)ccn2)c1 [Example 27, 3-((3-((4-Thiomorpholino-2-(4-((3-(trifluoromethyl)benzyl)carbamoyl)pyridin-2-yl)phenyl)carbamoyl)benzyl)thio)propanoic acid] | 1 to 7.94 µM
7 | O=C(O)CCSCc1cccc(C(=O)Nc2ccc(N3CC4CCCC4C3)cc2-c2cc(C(=O)NCc3cccc(C(F)(F)F)c3)ccn2)c1 (stereo not shown) [Example 28, 3-((3-((4-(Hexahydrocyclopenta[c]pyrrol-2(1H)-yl)-2-(4-((3-(trifluoromethyl)-benzyl)carbamoyl)pyridin-2-yl)phenyl)carbamoyl)benzyl)thio)propanoic acid] | 1 to 7.94 µM
8 | CCOc1ccc(NC(=O)c2cccc(CSCCC(=O)O)c2)c(-c2cc(C(=O)NCc3cccc(C(F)(F)F)c3)ccn2)c1 [Example 29, 3-((3-((4-Ethoxy-2-(4-((3-(trifluoromethyl)benzyl)carbamoyl)pyridin-2-yl)phenyl)carbamoyl)benzyl)thio)propanoic acid] | 1 to 7.94 µM
9 | O=C(O)CCSCc1cccc(C(=O)Nc2ccc(N3CCCCC3)cc2-c2cc(C(=O)NCCCCCCCCCCCCNC(=O)c3ccnc(-c4cc(N5CCCCC5)ccc4NC(=O)c4cccc(CSCCC(=O)O)c4)c3)ccn2)c1 [Example 2] | 10 to 31.6 µM
10 | COCCOc1ccc(NC(=O)c2cccc(CSCCC(=O)O)c2)c(-c2cc(C(=O)NCc3cccc(C(F)(F)F)c3)ccn2)c1 [Example 34, 3-((3-((4-(2-Methoxyethoxy)-2-(4-((3-(trifluoromethyl)benzyl)carbamoyl)pyridin-2-yl)phenyl)carbamoyl)benzyl)thio)propanoic acid] | 10 to 31.6 µM
11 | COC1CCN(c2ccc(NC(=O)c3cccc(CSCCC(=O)O)c3)c(-c3cc(C(=O)NCc4cccc(C(F)(F)F)c4)ccn3)c2)CC1 [Example 31, 3-((3-((4-(4-Methoxypiperidin-1-yl)-2-(4-((3-(trifluoromethyl)benzyl)carbamoyl)-pyridin-2-yl)phenyl)carbamoyl)benzyl)thio)propanoic acid] | 10 to 31.6 µM
12 | O=C(O)CCSCc1cccc(C(=O)Nc2ccc(F)cc2-c2cc(C(=O)NCc3cccc(C(F)(F)F)c3)ccn2)c1 [Example 18, 3-((3-((4-Fluoro-2-(4-((3-(trifluoromethyl)benzyl)carbamoyl)pyridin-2-yl)phenyl)carbamoyl)benzyl)thio)propanoic acid] | 1 to 7.94 µM
13 | O=C(O)CCSCc1cccc(C(=O)Nc2ccc(OCC(F)(F)F)cc2-c2cc(C(=O)NCc3cccc(C(F)(F)F)c3)ccn2)c1 [Example 32] | 10 to 31.6 µM
14 | COCCN(CCOC)c1ccc(NC(=O)c2cccc(CSCCC(=O)O)c2)c(-c2cc(C(=O)NCc3cccc(C(F)(F)F)c3)ccn2)c1 [Example 17, 3-(3-((2-(4-((3-(trifluoromethyl)benzyl)carbamoyl)pyridin-2-yl)-4-(bis(2-methoxyethyl)amino)phenyl)carbamoyl)benzylthio)propanoic acid] | 1 to 7.94 µM
15 | CC(C)Oc1ccc(NC(=O)c2cccc(CSCCC(=O)O)c2)c(-c2cc(C(=O)NCc3cccc(C(F)(F)F)c3)ccn2)c1 [Example 15, 3-((3-((4-Isopropoxy-2-(4-((3-(trifluoromethyl)benzyl)carbamoyl)pyridin-2-yl)phenyl)carbamoyl)benzyl)thio)propanoic acid] | 1 to 7.94 µM

The next lines start with the values.

Row | IC50 | Compound
16 | 1 to 7.94 µM | COCCNC(=O)CCN(C)Cc1cccc(C(=O)Nc2ccc(N3CCCCC3)cc2-c2cc(C(=O)NCc3cccc(C(F)(F)F)c3)ccn2)c1 [Example 51, 2-(2-(3-(((3-((2-Methoxyethyl)amino)-3-oxopropyl)(methyl)amino)methyl)benzamido)-5-(piperidin-1-yl)phenyl)-N-(3-(trifluoromethyl)benzyl)isonicotinamide]
17 | 10 to 31.6 µM | CC(=O)NC1CCN(Cc2cccc(C(=O)Nc3ccc(N4CCCCC4)cc3-c3cc(C(=O)NCc4cccc(C(F)(F)F)c4)ccn3)c2)CC1 [Example 46, 2-(2-(3-((4-Acetamidopiperidin-1-yl)methyl)benzamido)-5-(piperidin-1-yl)phenyl)-N-(3-(trifluoromethyl)benzyl)isonicotinamide]
18 | 10 to 31.6 µM | CN1CCN(CCN(C)Cc2cccc(C(=O)Nc3ccc(N4CCCCC4)cc3-c3cc(C(=O)NCc4cccc(C(F)(F)F)c4)ccn3)c2)CC1 [Example 40, 2-(2-(3-((Methyl(2-(4-methylpiperazin-1-yl)ethyl)amino)methyl)benzamido)-5-(piperidin-1-yl)phenyl)-N-(3-(trifluoromethyl)benzyl)isonicotinamide]
19 | 1 to 7.94 µM | CC(=O)N1CCCN(Cc2cccc(C(=O)Nc3ccc(N4CCCCC4)cc3-c3cc(C(=O)NCc4cccc(C(F)(F)F)c4)ccn3)c2)CC1 [Example 49, 2-(2-(3-((4-Acetyl-1,4-diazepan-1-yl)methyl)benzamido)-5-(piperidin-1-yl)phenyl)-N-(3-(trifluoromethyl)benzyl)isonicotinamide]
20 | 1 to 7.94 µM | CN(Cc1cccc(C(=O)Nc2ccc(N3CCCCC3)cc2-c2cc(C(=O)NCc3cccc(C(F)(F)F)c3)ccn2)n1)C(=O)CN1CCOCC1 [Example 53, 6-((N-Methyl-2-morpholinoacetamido)methyl)-N-(4-(piperidin-1-yl)-2-(4-((3-(trifluoromethyl)benzyl)carbamoyl)pyridin-2-yl)phenyl)picolinamide]
21 | 10 to 31.6 µM | CN1CCCN(Cc2cccc(C(=O)Nc3ccc(N4CCCCC4)cc3-c3cc(C(=O)NCc4cccc(C(F)(F)F)c4)ccn3)c2)CC1 [Example 45, 2-(2-(3-((4-Methyl-1,4-diazepan-1-yl)methyl)benzamido)-5-(piperidin-1-yl)phenyl)-N-(3-(trifluoromethyl)benzyl)isonicotinamide]
22 | 1 to 7.94 µM | CN(CCN1CCN(S(C)(=O)=O)CC1)Cc1cccc(C(=O)Nc2ccc(N3CCCCC3)cc2-c2cc(C(=O)NCc3cccc(C(F)(F)F)c3)ccn2)c1 [Example 39]
23 | 1 to 7.94 µM | O=C(O)CCSCc1cccc(C(=O)Nc2ccc(Oc3ccccc3)cc2-c2cc(C(=O)NCc3cccc(C(F)(F)F)c3)ccn2)c1 [Example 36, 3-((3-((4-Phenoxy-2-(4-((3-(trifluoromethyl)benzyl)carbamoyl)pyridin-2-yl)phenyl)carbamoyl)benzyl)thio)propanoic acid]
24 | 1 to 7.94 µM | CCSc1ccc(NC(=O)c2cccc(CSCCC(=O)O)c2)c(-c2cc(C(=O)NCc3cccc(C(F)(F)F)c3)ccn2)c1 [Example 35, 3-((3-((4-(Ethylthio)-2-(4-((3-(trifluoromethyl)benzyl)carbamoyl)pyridin-2-yl)phenyl)carbamoyl)benzyl)thio)propanoic acid]
25 | 10 to 31.6 µM | CC(C)(C)OC(=O)N1CCCN(Cc2cccc(C(=O)Nc3ccc(N4CCCCC4)cc3-c3cc(C(=O)NCc4cccc(C(F)(F)F)c4)ccn3)c2)CC1 [Example 44, tert-Butyl 4-(3-((4-(piperidin-1-yl)-2-(4-((3-(trifluoromethyl)benzyl)carbamoyl)pyridin-2-yl)phenyl)carbamoyl)benzyl)-1,4-diazepane-1-carboxylate]
